The values that follow come from patent US11440880B2, “Thalidomide analogs and methods of use” (The USA, as represented by the Secretary, Department of …, priority 2015, dated 2022).

As usually defined, the minimal effective concentration is the lowest level tested that produced the effect sought.

The subject of data set [1] is mpo:GFP zebrafish embryos (neutrophil migration to the wound site). The data set is described as follows: mpo:GFP zebrafish fin-clip neutrophil migration (inflammation) assay. It is filed as in vivo. Set-up: mpo:GFP inflammation n (survived/tested): concentration or dose not given beside the values. As to conditions: for minimal effective concentration: Danio rerio, Neutrophil, lowest concentration producing an effect, compounds not producing an effect shown at the highest evaluated concentration; for mpo:GFP inflammation n (survived/tested): embryos survived/tested at the concentration given. A digest of the protocol:
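Tg(mpo::EGFP) larvae tail-fin clipped (dorsal third removed) at 72 hpf, then immersed in compound or vehicle. Neutrophils migrating to the wound site counted from images 24 h later; at least 50% reduction scored as anti-inflammatory. Viability and morphology also assessed.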

The test system of data set [2] is RAW 264.7 cells. Nature of the data set: Cell viability (CellTiter 96 AQueous One) of LPS-challenged RAW 264.7 cells. It is filed as cell-based, mouse. Set-up: key: NS=not significant; a “+” sign=anti-inflammatory or increased cell numbers; a “−” sign=cell toxicity or pro-inflammatory. An outline of the steps:
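RAW 264.7 murine macrophages pretreated 1 h with compound or DMSO vehicle, then challenged with LPS (serotype 055:B5) at 30 or 60 ng/mL final for 24 h. After media replacement, viability measured by tetrazolium (MTS) conversion, absorbance at 490 nm, reported as O.D.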

Data set [3] concerns nitrite levels in the culture media. The data set is described as follows: Nitrite level (Griess Reagent System) in LPS-challenged RAW 264.7 cells. It is filed as cell-based, mouse. Set-up: key: NS=not significant; a “+” sign=anti-inflammatory or increased cell numbers; a “−” sign=cell toxicity or pro-inflammatory. As to conditions: LPS 30 or 60 ng/mL, 24 h. An outline of the steps:
(§1)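 RAW 264.7 cells pretreated 1 h with compound in DMSO vehicle, then challenged with LPS (30 or 60 ng/mL) for 24 h at 37° C. Conditioned-media nitrite by Griess (520 nm, sodium nitrite standard curve, 1.5 μM cutoff) in μM; mouse TNF-α by ELISA as pg/ml or % change from control.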
(In general: Nitrite, measured by Griess reagent, commonly stands in for NO production.)

In data set [4] the test system is fli1:EGFP zebrafish embryos (intersegmental vessel growth). The data set is described as follows: fli1:EGFP zebrafish embryo angiogenesis assay. The arrangement: fli1:EGFP angiogenesis n (survived/tested): concentration or dose not given beside the values. The data set is classed as in vivo. Conditions: for minimal effective concentration: Danio rerio, lowest concentration producing an effect, compounds not producing an effect shown at the highest evaluated concentration; for fli1:EGFP angiogenesis n (survived/tested): embryos alive after 24 hours of exposure. A digest of the protocol: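 fli1:EGFP embryos grown 24 hpf, dechorionated and exposed to compound or vehicle over a range of concentrations for up to 24 h, with CPS49 as positive control. Imaged at 48 hpf for intersegmental vessel formation and growth; survival after 24 h exposure recorded, and values reflect the lowest concentration producing an effect.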

The test system of data set [5] is TNF-α protein. The data set is described as follows: TNF-α protein level (ELISA) in LPS-challenged RAW 264.7 cells. It is filed as cell-based, mouse. Set-up: key: NS=not significant; a “+” sign=anti-inflammatory or increased cell numbers; a “−” sign=cell toxicity or pro-inflammatory. As to conditions: LPS 30 or 60 ng/mL, 24 h. An outline of the steps:
as §1
For orientation: ELISA stands for enzyme-linked immunosorbent assay.

SMILES strings stand for the structures.

With `FC(F)(F)c1ccnc(/N=C2/c3ccccc3CN2c2cc(C(F)(F)F)ccn2)c1` [Compound 67, N-(4-Trifluoromethylpyridin-2-yl)-1-imino(4-trifluoromethylpyridin-2-yl)-isoindoline], the minimal effective concentration stood at 200 µg/mL in data set [1] and 10 µg/mL in data set [4]. Moreover, the “mpo:GFP inflammation n (survived/tested)” value in data set [1] is reported as 6/15. Further, the Viability entry in data set [2] (1 μM), in data set [2] (10 μM) and in data set [2] (30 μM) was “NS” throughout. The Nitrite result in data set [3] (1 μM) is recorded as “NS”; in data set [3] (10 μM), “NS”; in data set [3] (30 μM), “+”. Also, in data set [4], the “fli1:EGFP angiogenesis n (survived/tested)” value is given as 13/22. Also, the TNF-α result in data set [5] (1 μM), in data set [5] (10 μM) and in data set [5] (30 μM) was “NS” each time.
As for `O=C1c2ccccc2CN1c1ccc(C(F)(F)F)cc1` [Compound 68], the figures for the minimal effective concentration in data set [1] and in data set [4] were 100 µg/mL and 10 µg/mL, respectively. Moreover, the “mpo:GFP inflammation n (survived/tested)” value in data set [1] is on record as 5/15. In addition, the Viability entry in data set [2] (1 μM), in data set [2] (10 μM) and in data set [2] (30 μM) was “NS” in each case. Besides, the Nitrite result in data set [3] (1 μM), in data set [3] (10 μM) and in data set [3] (30 μM) was “NS” throughout. Besides, the “fli1:EGFP angiogenesis n (survived/tested)” value in data set [4] was 22/34. In addition, the TNF-α result in data set [5] (1 μM), in data set [5] (10 μM) and in data set [5] (30 μM) was “NS” throughout.
`O=C1c2ccccc2CN1C12CC3CC(CC(C3)C1)C2` [Compound 69]: the minimal effective concentration in data set [1] was 200 µg/mL; in data set [4], 10 µg/mL. In addition, the “mpo:GFP inflammation n (survived/tested)” value in data set [1] is 8/17. Besides, the Viability result in data set [2] (1 μM), in data set [2] (10 μM) and in data set [2] (30 μM) was “NS” each time. The Nitrite result in data set [3] (1 μM), in data set [3] (10 μM) and in data set [3] (30 μM) was “NS” each time. In addition, the “fli1:EGFP angiogenesis n (survived/tested)” value in data set [4] is listed as 6/14. Also, the TNF-α entry in data set [5] (1 μM), in data set [5] (10 μM) and in data set [5] (30 μM) was “NS” throughout.
Turning to `O=C1c2ccccc2CN1CC12CC3CC(CC(C3)C1)C2` [Compound 70], the minimal effective concentration in data set [1] stood at 200 µg/mL; in data set [4], 10 µg/mL. Further, in data set [1], the “mpo:GFP inflammation n (survived/tested)” value is recorded as 10/15. Moreover, the Viability result in data set [2] (1 μM), in data set [2] (10 μM) and in data set [2] (30 μM) was “NS” each time. The Nitrite result is “NS” in data set [3] (1 μM), “NS” in data set [3] (10 μM) and “+” in data set [3] (30 μM). Also, the “fli1:EGFP angiogenesis n (survived/tested)” value in data set [4] is given as 8/10. Further, the TNF-α result in data set [5] (1 μM) is “NS”; in data set [5] (10 μM), “+”; in data set [5] (30 μM), “+”.
With `O=C1c2ccccc2CN1C1C2CC3CC(C2)CC1C3` (stereo not shown) [Compound 72, 2,3-Dihydro-2-(tricyclo[3.3.1.1^3,7]dec-2-yl)-1H-isoindol-1-one], the minimal effective concentration in data set [1] turned out to be 10 µg/mL; in data set [4], 200 µg/mL. Moreover, the “mpo:GFP inflammation n (survived/tested)” value in data set [1] was 6/15. For the same compound, the figures for the Viability result in data set [2] (1 μM), in data set [2] (10 μM) and in data set [2] (30 μM) were “+”, “NS” and “−”, respectively. For the same compound, the Nitrite result in data set [3] (1 μM) is given as “NS”; in data set [3] (10 μM), “NS”; in data set [3] (30 μM) it was “+”. Besides, the “fli1:EGFP angiogenesis n (survived/tested)” value in data set [4] is recorded as 9/20. For the same compound, the TNF-α entry in data set [5] (1 μM) is listed as “+”; in data set [5] (10 μM) it was “NS”; in data set [5] (30 μM), “+”.
As for `O=C1c2ccccc2CN1C12CC3CC(CC1C3)C2` [Compound 73], the minimal effective concentration in data set [1] and in data set [4] was 10 µg/mL each time. Also, the “mpo:GFP inflammation n (survived/tested)” value in data set [1] is given as 7/13. For the same compound, the Viability result is recorded as “NS” in data set [2] (1 μM), “NS” in data set [2] (10 μM) and “−” in data set [2] (30 μM). In addition, the Nitrite entry is recorded as “NS” in data set [3] (1 μM), “+” in data set [3] (10 μM) and “+” in data set [3] (30 μM). Besides, the “fli1:EGFP angiogenesis n (survived/tested)” value in data set [4] was 6/12. Further, the values for the TNF-α entry in data set [5] (1 μM), in data set [5] (10 μM) and in data set [5] (30 μM) were “NS”, “NS” and “+”, respectively.
With `CC(N1Cc2ccccc2C1=S)C12CC3CC(CC(C3)C1)C2` (stereo not shown) [Compound 74, 2,3-Dihydro-2-[1-(1-tricyclo[3.3.1.1^3,7]dec-1-yl)ethyl]-1H-isoindol-1-thione], the minimal effective concentration in data set [1] came to 200 µg/mL; in data set [4] it was 10 µg/mL. The “mpo:GFP inflammation n (survived/tested)” value in data set [1] is 6/14. Also, the Viability result in data set [2] (1 μM), in data set [2] (10 μM) and in data set [2] (30 μM) was “NS” each time. For the same compound, the Nitrite result in data set [3] (1 μM) is reported as “NS”; in data set [3] (10 μM) it was “NS”; in data set [3] (30 μM) it was “+”. Further, in data set [4], the “fli1:EGFP angiogenesis n (survived/tested)” value is listed as 9/15. The TNF-α result in data set [5] (1 μM), in data set [5] (10 μM) and in data set [5] (30 μM) was “NS” throughout.
Regarding `O=C1c2cccc([N+](=O)[O-])c2CN1C12CC3CC(CC(C3)C1)C2` [Compound 76, 2,3-Dihydro-4-nitro-2-(tricyclo[3.3.1.1^3,7]dec-1-yl)-1H-isoindol-1-one], the minimal effective concentration in data set [1] amounted to 100 µg/mL; in data set [4], 10 µg/mL. For the same compound, in data set [1], the “mpo:GFP inflammation n (survived/tested)” value is listed as 5/11. The Viability entry in data set [2] (1 μM), in data set [2] (10 μM) and in data set [2] (30 μM) was “NS” throughout. Also, the Nitrite entry was “NS” in data set [3] (1 μM), “+” in data set [3] (10 μM) and “+” in data set [3] (30 μM). Further, in data set [4], the “fli1:EGFP angiogenesis n (survived/tested)” value is reported as 28/32. Also, the TNF-α result in data set [5] (1 μM) is listed as “NS”; in data set [5] (10 μM) it was “NS”; in data set [5] (30 μM), “+”.
Take `O=C1c2cccc([N+](=O)[O-])c2CN1C1C2CC3CC(C2)CC1C3` (stereo not shown) [Compound 82]: the minimal effective concentration in data set [1] and in data set [4] was 5 µg/mL in each case. In addition, the “mpo:GFP inflammation n (survived/tested)” value in data set [1] was 8/22. Moreover, the figures for the Viability entry in data set [2] (1 μM), in data set [2] (10 μM) and in data set [2] (30 μM) were “NS”, “−” and “−”, respectively. In addition, the Nitrite entry in data set [3] (1 μM), in data set [3] (10 μM) and in data set [3] (30 μM) was “+” in each case. Also, the “fli1:EGFP angiogenesis n (survived/tested)” value in data set [4] is 18/27. For the same compound, the TNF-α entry in data set [5] (1 μM) is “NS”; in data set [5] (10 μM), “+”; in data set [5] (30 μM), “+”.
For the compound `Nc1cccc2c1CN(C1C3CC4CC(C3)CC1C4)C2=O` (stereo not shown) [Compound 83], the minimal effective concentration in data set [1] and in data set [4] was 20 µg/mL each time. Moreover, in data set [1], the “mpo:GFP inflammation n (survived/tested)” value is listed as 6/23. Also, the Viability entry in data set [2] (1 μM), in data set [2] (10 μM) and in data set [2] (30 μM) was “NS” throughout. For the same compound, the Nitrite result in data set [3] (1 μM) is “NS”; in data set [3] (10 μM), “+”; in data set [3] (30 μM), “+”. In addition, in data set [4], the “fli1:EGFP angiogenesis n (survived/tested)” value is 3/12. Besides, the TNF-α entry in data set [5] (1 μM), in data set [5] (10 μM) and in data set [5] (30 μM) was “NS” each time.
